Test results from PubChem BioAssay (NCI).
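Cells were grown in 96-well plates and exposed to each compound for 48 hours at five concentrations; endpoints were interpolated linearly between bracketing concentrations, or set to the highest concentration if not reached. TGI marks complete inhibition of growth.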

Key:
Experiment in all cases: NCI anticancer screen, dose series, 48 h
NCI-H522 lung = test system: NCI-H522 lung
KM12 colon = test system: KM12 colon
SK-MEL-28 melanoma = test system: SK-MEL-28 melanoma
CAKI-1 renal = test system: CAKI-1 renal
A498 renal = test system: A498 renal
786-0 renal = test system: 786-0 renal
MDA-MB-231 breast = test system: MDA-MB-231 breast
MCF7 breast = test system: MCF7 breast
SF-539 CNS = test system: SF-539 CNS
A549 NSCLC = test system: A549 NSCLC
SN12C renal = test system: SN12C renal
HT29 colon = test system: HT29 colon
OVCAR-8 ovarian = test system: OVCAR-8 ovarian
SK-MEL-5 melanoma = test system: SK-MEL-5 melanoma
RPMI-8226 leukemia = test system: RPMI-8226 leukemia
HOP-92 NSCLC = test system: HOP-92 NSCLC
MDA-N = test system: MDA-N
SK-MEL-2 melanoma = test system: SK-MEL-2 melanoma
M14 melanoma = test system: M14 melanoma
TK-10 renal = test system: TK-10 renal
SNB-19 CNS = test system: SNB-19 CNS
SNB-75 CNS = test system: SNB-75 CNS
COLO 205 colon = test system: COLO 205 colon
EKVX NSCLC = test system: EKVX NSCLC
MDA-MB-435 = test system: MDA-MB-435
SF-268 CNS = test system: SF-268 CNS
OVCAR-3 ovarian = test system: OVCAR-3 ovarian
SF-295 CNS = test system: SF-295 CNS
U251 CNS = test system: U251 CNS
UACC-62 melanoma = test system: UACC-62 melanoma
IGROV1 ovarian = test system: IGROV1 ovarian
HS 578T breast = test system: HS 578T breast
UACC-257 melanoma = test system: UACC-257 melanoma
HCT-116 colon = test system: HCT-116 colon
HOP-62 NSCLC = test system: HOP-62 NSCLC
NCI-H460 lung = test system: NCI-H460 lung
BT-549 breast = test system: BT-549 breast
T-47D breast = test system: T-47D breast
SW-620 colon = test system: SW-620 colon
NCI/ADR-RES ovarian = test system: NCI/ADR-RES ovarian
K-562 leukemia = test system: K-562 leukemia
SK-OV-3 ovarian = test system: SK-OV-3 ovarian
NCI-H23 lung = test system: NCI-H23 lung
OVCAR-4 ovarian = test system: OVCAR-4 ovarian
LOX IMVI melanoma = test system: LOX IMVI melanoma
ACHN renal = test system: ACHN renal
PC-3 prostate = test system: PC-3 prostate
RXF 393 renal = test system: RXF 393 renal
OVCAR-5 ovarian = test system: OVCAR-5 ovarian
MALME-3M melanoma = test system: MALME-3M melanoma
SR leukemia = test system: SR leukemia
NCI-H226 lung = test system: NCI-H226 lung
HCT-15 colon = test system: HCT-15 colon
DU-145 prostate = test system: DU-145 prostate
MOLT-4 leukemia = test system: MOLT-4 leukemia
HCC-2998 colon = test system: HCC-2998 colon
CCRF-CEM leukemia = test system: CCRF-CEM leukemia
HL-60(TB) leukemia = test system: HL-60(TB) leukemia
UO-31 renal = test system: UO-31 renal

Measured: TGI

CCOC(=O)c1cnc(N(C)C)nc1SC(=N)N
not listed: HCC-2998 colon | CCRF-CEM leukemia | HL-60(TB) leukemia | UO-31 renal
> 100 µM: all other assays above

CCn1cc2c(=O)n3ncn(-c4ccc(Br)cc4)c3nc2n1
45.8 µM: SNB-75 CNS
not listed: SF-539 CNS | HOP-92 NSCLC | NCI-H460 lung | LOX IMVI melanoma
> 100 µM: all other assays above

COc1ccc(C2SC(N)=Nc3c2c(C)nn3C(=O)c2ccccc2O)cc1OC (stereo not given)
7.47 µM: HCT-116 colon
9.32 µM: SNB-75 CNS
4.36 µM: HOP-92 NSCLC
7.93 µM: UACC-62 melanoma
5.11 µM: HS 578T breast
not listed: NCI-H522 lung | OVCAR-8 ovarian | SK-MEL-5 melanoma | HCC-2998 colon
> 10 µM: all other assays above

COc1ccc(N=c2oc3ccccc3cc2C(N)=O)cc1
24.7 µM: SNB-19 CNS
93.1 µM: NCI-H522 lung
75.1 µM: SF-295 CNS
34.8 µM: HOP-62 NSCLC
47.7 µM: SK-OV-3 ovarian
63.6 µM: SF-539 CNS
14.8 µM: UO-31 renal
32.4 µM: CAKI-1 renal
42.9 µM: HS 578T breast
37.1 µM: ACHN renal
42.6 µM: SF-268 CNS
87.7 µM: MCF7 breast
46.6 µM: TK-10 renal
68.8 µM: 786-0 renal
not listed: A498 renal | OVCAR-4 ovarian | OVCAR-5 ovarian | MALME-3M melanoma
> 100 µM: all other assays above
